The record followed here is article PMC9234956 (Journal of Medicinal Chemistry, 2022).

Substitutions are numbered along the chain they refer to. Structures can show the parent of a compound that is named as a salt. Where two headings read alike, the source gives them in different places. Marks after values point to notes of the source that are not given here. Some results are limits rather than exact numbers.

The conditions of series [1]: rat, Tris salt, fasted.
The conditions of series [2]: monkey, 5.0 mg/kg po, Tris salt, fasted.
Series [3] deals with T1, human GLP-1R (Homo sapiens, UniProt P43220). The series is described as follows: βArr1 recruitment, DiscoverX PathHunter cell line, buffer with 0.1% BSA. Type of series: cell-based. To be noted: buffer containing 0.1% BSA.
The target of series [4] is T1, human GLP-1R. Put plainly: βArr2 recruitment, DiscoverX PathHunter cell line, buffer with 0.1% BSA. To be noted: for βArr2 slope: buffer containing 0.1% BSA. It is filed as cell-based.
For series [5], the target named is T1, human GLP-1R.
The target in series [6] is T1, human GLP-1R. The series is described as follows: cAMP assay in candidate selection. To be noted: for CS cAMP slope: slope of concentration-response curve. In general terms: Cyclic AMP is a second messenger, typically raised through Gs and lowered through Gi signalling.
Series [7] has as its target T1, human GLP-1R. The following applies: for SA cAMP – BETP slope: slope of concentration-response curve.
The target of series [8] is T1, human GLP-1R. Put plainly: BETP-sensitized cAMP screening assay. It is filed as cell-based. To be noted: for SA cAMP + BETP slope: slope of concentration-response curve.
The nature of series [9]: Intrinsic metabolic clearance in cryopreserved human hepatocytes. It is filed as in vitro ADME.
Series [10] in a line: Intrinsic metabolic clearance in human liver microsomes. Type of series: in vitro ADME. To be noted: scaled from in vitro half-life; for CLint scaled: human, liver microsomes, HLM CLint. (Microsomes from liver hold many membrane-bound enzymes, among them those of drug oxidation.)
Series [11] deals with T1, human GLP-1R. The following applies: assay medium.
For series [12], the target named is T2, mouse GLP-1R S33W (Mus musculus, UniProt O35659, S33W).
T2 sequence (O35659 22-463 S33W): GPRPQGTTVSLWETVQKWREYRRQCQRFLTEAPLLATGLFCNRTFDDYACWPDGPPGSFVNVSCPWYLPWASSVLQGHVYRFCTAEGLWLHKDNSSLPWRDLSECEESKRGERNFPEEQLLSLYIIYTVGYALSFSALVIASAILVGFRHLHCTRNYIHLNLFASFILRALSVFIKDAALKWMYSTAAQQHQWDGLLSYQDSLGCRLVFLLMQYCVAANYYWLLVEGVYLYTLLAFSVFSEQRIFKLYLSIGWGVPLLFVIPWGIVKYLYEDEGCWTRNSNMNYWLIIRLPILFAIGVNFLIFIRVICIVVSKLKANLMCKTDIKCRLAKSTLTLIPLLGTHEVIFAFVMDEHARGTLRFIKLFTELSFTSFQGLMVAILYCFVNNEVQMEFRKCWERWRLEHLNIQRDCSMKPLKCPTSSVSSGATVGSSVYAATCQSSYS

Series [13] relates to cynomolgus monkeys. The series is described as follows: Intravenous glucose tolerance test. The following applies: iv infusion.
For series [14], the system named is cynomolgus monkeys. Put plainly: Cynomolgus monkey food intake. The following applies: 2.9 mg/kg subcutaneous once daily for 2 days. It is filed as in vivo.
Series [15] concerns the target human GLP-1R W33S (Homo sapiens, UniProt P43220, W33S). The series is described as follows: cAMP, functional assessment of GLP-1R mutants: human W33S.
In series [16] the target is T3, rat GLP-1R (Rattus norvegicus, UniProt P32301).
T3 sequence (P32301 22-463): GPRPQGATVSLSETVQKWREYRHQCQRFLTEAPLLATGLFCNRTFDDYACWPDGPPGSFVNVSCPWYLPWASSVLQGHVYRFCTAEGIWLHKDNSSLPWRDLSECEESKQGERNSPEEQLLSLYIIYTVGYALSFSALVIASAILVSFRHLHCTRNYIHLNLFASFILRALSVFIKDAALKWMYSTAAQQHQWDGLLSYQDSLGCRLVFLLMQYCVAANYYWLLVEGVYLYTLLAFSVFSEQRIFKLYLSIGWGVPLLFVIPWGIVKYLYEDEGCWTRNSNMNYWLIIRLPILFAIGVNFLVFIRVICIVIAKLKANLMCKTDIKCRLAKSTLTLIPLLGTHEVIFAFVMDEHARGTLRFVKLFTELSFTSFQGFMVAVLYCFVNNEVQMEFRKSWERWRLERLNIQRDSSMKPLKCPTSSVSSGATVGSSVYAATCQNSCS
Put plainly: cAMP accumulation, CHO cells expressing rat GLP-1R. Type of series: cell-based.

For series [17], the target named is GFP-tagged human GLP-1R (Homo sapiens, UniProt P43220). Put plainly: Confocal microscopy of GFP-tagged human GLP-1R in HEK 293 cells. The following applies: stimulation for 30 min; reversible following a 2 h washout. Type of series: cell-based.
Series [18] concerns the target T4, mouse GLP-1R (Mus musculus, UniProt O35659).
T4 sequence (O35659 22-463): T2 sequence (O35659 22-463 S33W) with W12S
Put plainly: cAMP accumulation, CHO cells expressing mouse GLP-1R. Type of series: cell-based.

Series [19] in a line: in vivo. To be noted: male, Wistar-Han, rat, plasma, iv, 1 mg/kg.
Series [20] concerns the target T1, human GLP-1R. This is another data set of the same source.
For series [21], the target named is T5, rabbit GLP-1R (Oryctolagus cuniculus, UniProt G1SGD4).
T5 sequence (G1SGD4 24-462): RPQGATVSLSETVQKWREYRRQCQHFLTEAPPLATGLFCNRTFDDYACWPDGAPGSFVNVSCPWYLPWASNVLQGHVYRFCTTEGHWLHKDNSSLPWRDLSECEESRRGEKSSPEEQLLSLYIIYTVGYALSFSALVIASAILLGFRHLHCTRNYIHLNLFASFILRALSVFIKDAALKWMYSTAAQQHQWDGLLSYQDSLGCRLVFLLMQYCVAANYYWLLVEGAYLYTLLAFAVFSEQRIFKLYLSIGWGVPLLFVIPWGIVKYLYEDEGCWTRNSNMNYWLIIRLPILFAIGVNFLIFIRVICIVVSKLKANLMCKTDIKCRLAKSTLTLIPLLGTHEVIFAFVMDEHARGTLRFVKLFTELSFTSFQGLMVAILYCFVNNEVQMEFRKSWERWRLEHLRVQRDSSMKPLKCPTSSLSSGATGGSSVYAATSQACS
The series is described as follows: cAMP accumulation, CHO cells expressing rabbit GLP-1R. It is filed as cell-based.

Series [22] relates to healthy adult participants. Put plainly: Phase 1 first-in-human single ascending dose study: safety.
Series [23] has as its target T1, human GLP-1R. The following applies: relative to liraglutide; HEK 293 FAP-GLP1R.
Series [24] in a line: in vivo. The following applies: male, cynomolgus monkey, plasma, iv, 1 mg/kg.
For series [25] the following is noted: single oral doses 3–300 mg, fasted.

T1 sequence (P43220 24-463): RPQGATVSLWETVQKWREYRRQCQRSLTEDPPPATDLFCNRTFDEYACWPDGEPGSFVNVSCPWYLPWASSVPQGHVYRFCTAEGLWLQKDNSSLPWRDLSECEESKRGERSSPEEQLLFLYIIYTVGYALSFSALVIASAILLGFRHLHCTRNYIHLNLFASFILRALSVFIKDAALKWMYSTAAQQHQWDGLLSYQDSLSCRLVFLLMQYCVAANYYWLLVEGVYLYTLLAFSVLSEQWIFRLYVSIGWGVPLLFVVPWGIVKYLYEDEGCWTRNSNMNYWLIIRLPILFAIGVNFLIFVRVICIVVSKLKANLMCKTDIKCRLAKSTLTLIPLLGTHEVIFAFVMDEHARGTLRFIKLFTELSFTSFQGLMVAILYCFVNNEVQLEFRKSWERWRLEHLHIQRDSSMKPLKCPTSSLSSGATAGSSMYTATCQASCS
human GLP-1R W33S, sequence (P43220 24-463 W33S): as the sequence (P43220 24-463) above, with W10S counted along it
GFP-tagged human GLP-1R, sequence (P43220 24-463): as the sequence (P43220 24-463) above

For `N#Cc1ccc(COc2cccc(C3CCN(Cc4nc5ccc(C(=O)O)cc5n4C[C@@H]4CCO4)CC3)n2)c(F)c1` [Danuglipron, Tris salt, (S)-2-[(4-{6-[(4-Cyano-2-fluorobenzyl)oxy]pyridin-2-yl}piperidin-1-yl)methyl]-1-(oxetan-2-ylmethyl)-1H-benzo[d]imidazole-6-carboxylic Acid], the “oral F” value in series [1] (5.0 mg/kg po) is on record as 11 (10, 12) %; in series [1] (100 mg/kg po), 39 (37, 44) %; in series [2], 5.0 (4.0, 6.0) %.
`CCn1cncc1Cn1c(CN2CCC(c3cccc(OCc4ccc(F)cc4F)n3)CC2)nc2ccc(C(=O)O)cc21` [PF-06883365] returned a βArr1 slope in [3] of 0.94 ± 0.013. This molecule also yielded a βArr2 slope in series [4] of 0.79 ± 0.12. For the same molecule, in series [5], the “[3H]PF-06883365 binding slope” value is on record as 1.0 ± 0.15. Besides, in [6], the “CS cAMP slope” value is on record as 1.1 ± 0.19. Also, the “SA cAMP – BETP slope” value in [7] came out at 0.98 ± 0.12.
In general, CLint scaled refers to a measure of how fast metabolising enzymes remove a compound, apart from limits set by blood flow. As for `Cn1c(CN2CCC(c3nc(OCc4ccc(Cl)cc4F)ncc3F)CC2)nc2ccccc21` [compound 2], the “SA cAMP + BETP slope” value in series [8] amounted to 1.3 ± 0.75. For the same molecule, in [9], the “hHEP CLint” value was 48 (n = 1) μL/min/million. For the same molecule, the “GLP-1R agonist activity in the unpotentiated cAMP SA” value in [7] (without BETP) is “inactive”. The molecule further came in with an intrinsic clearance (CLint scaled) in [10] of over 150 mL/min/kg.
Regarding `Cn1c(CN2CCC(c3cccc(OCc4ccc(Cl)cc4F)n3)CC2)nc2ccncc21` [compound 3], the “βArr2 + BETP slope” value in series [11] is 0.97 ± 0.10. Besides, in series [8] (SA + BETP EC50), the “fold more potent than HTS hit 2” value is on record as over 100 fold. Moreover, in series [8], the “SA cAMP + BETP slope” value is on record as 0.89 ± 0.17. Besides, the “hHEP CLint” value in series [9] is 55 (n = 1) μL/min/million. In series [7], the “SA cAMP – BETP slope” value was 1.2 ± 0.26. In series [10], the intrinsic clearance (CLint scaled) was determined as 130 mL/min/kg and the “HLM CLint” value is 140 ± 46 (n = 3) mL/min/kg.
For `Cn1c(CN2CCC(c3cccc(OCc4ccc(Cl)cc4F)n3)CC2)nc2nccc(NCC(=O)O)c21` [compound 4], the “βArr2 + BETP slope” value in series [11] was 0.93 (0.98, 0.88). For the same molecule, the “SA cAMP + BETP slope” value in series [8] is on record as 0.76 ± 0.058. Further, the “SA cAMP – BETP slope” value in series [7] came out at 0.75 ± 0.18. This molecule also gave an intrinsic metabolic clearance (CLint scaled) in [10] of under 11 mL/min/kg.
In the case of `Cn1c(CN2CCC(c3cccc(OCc4ccc(Cl)cc4F)n3)CC2)nc2ccc(C(=O)O)nc21` [compound 5], the “βArr2 + BETP slope” value in series [11] is 0.69 ± 0.13. In addition, the “SA cAMP + BETP slope” value in [8] was determined as 0.97 ± 0.15. In series [6], the “agonist character in CS cAMP assay” value is recorded as “full agonist” and the “CS cAMP slope” value is reported as 1 ± 0.14. For the same molecule, the “fold less potent in CS cell line than in SA” value in [6] (CS vs SA cAMP EC50) was about 20 fold. Also, the “SA cAMP – BETP slope” value in series [7] is on record as 1.1 ± 0.17. For the same molecule, the intrinsic metabolic clearance (CLint scaled) in series [10] was 29 ± 4.4 mL/min/kg.
The clearance is the volume of plasma or blood freed of the substance per unit of time. What is called half-life is the time needed for the level to fall by half in the phase considered. In the case of `N#Cc1ccc(COc2cccc(C3CCN(Cc4nc5ccc(C(=O)O)cc5n4C[C@@H]4CCO4)CC3)n2)c(F)c1` [danuglipron, (S)-2-[(4-{6-[(4-Cyano-2-fluorobenzyl)oxy]pyridin-2-yl}piperidin-1-yl)methyl]-1-(oxetan-2-ylmethyl)-1H-benzo[d]imidazole-6-carboxylic Acid], the figures for the “cAMP signaling at mouse GLP-1R S33W” value in series [12] and in series [12] (listed as Danuglipron) were “increased the level of accumulation of cAMP” and “restored”, respectively. Further, the “insulin secretion during IVGTT” value is “increase in the rate of insulin secretion” in series [13] and “enhanced insulin secretion” in series [13] (listed as Danuglipron). The “rate of glucose disappearance (K value) during IVGTT” value in series [13] was “increased the rate of glucose disappearance”. The “food intake versus vehicle” value in series [14] is listed as “inhibited food intake”. Besides, the “cAMP signaling at human GLP-1R W33S” value is recorded as “failed to induce signaling” in series [15] and “negated” in [15] (listed as Danuglipron). Further, in [8], the “SA cAMP + BETP slope” value was found to be 0.98 ± 0.029. For the same molecule, the “effect on cAMP levels” value in series [16], in [18] and in series [21] was “did not increase cAMP levels” each time. In series [3], the βArr1 slope turned out to be 0.90 ± 0.067. In series [17], the “intracellular accumulation of GFP-GLP-1R” value is listed as “marked intracellular accumulation of the GFP-GLP-1R”. Also, the values for the clearance at 24 h in series [19] and in series [24] were 57.3 ± 8.68 mL/min/kg and 13.8 mL/min/kg, respectively. Moreover, the half-life in series [19] is 1.1 h; in series [24], 1.9 h. Besides, in series [4], the “agonist character in βArr2 recruitment” value was “partial agonist”. This molecule showed a βArr2 slope in series [4] of 1 ± 0.18. Further, in [5], the “[3H]PF-06883365 binding slope” value is given as 1 ^b. In addition, the “agonist character in CS cAMP assay” value in series [6] was “full agonist”. For the same molecule, the “CS cAMP slope” value in [6] was determined as 1.1 ± 0.14. Moreover, in series [20], the “[125I]GLP-1 binding slope” value is 0.70 ± 0.099. The “post-dose fasting serum glucose levels” value in series [22] (after single doses, healthy participants) is listed as “remained within the normal reference range”. Further, the “tolerability after po administration under fasted conditions” value in series [22] (single doses 3 to 300 mg, healthy adults) was “generally well tolerated”. Besides, the “Bias factor (toward cAMP), cAMP vs Internalization” value in series [23] stood at 3.6. The “SA cAMP – BETP slope” value in [7] worked out at 1.1 ± 0.11. The “increase of plasma exposure (Cmax, AUCinf) with dose” value in [25] is “approximately dose-proportional”.
